In patent publication US9920089B2, “Process for producing a solid form of abiraterone acetate” (ZACH SYSTEM, priority 2013, dated 2018):

How the values were obtained:
[1] = cited from earlier work
human cytochrome P45017α = molecular target: T1, human cytochrome P45017α (Homo sapiens, UniProt P05093); conditions: qualitative statement; cited from earlier work
T1 sequence (P05093 1-508): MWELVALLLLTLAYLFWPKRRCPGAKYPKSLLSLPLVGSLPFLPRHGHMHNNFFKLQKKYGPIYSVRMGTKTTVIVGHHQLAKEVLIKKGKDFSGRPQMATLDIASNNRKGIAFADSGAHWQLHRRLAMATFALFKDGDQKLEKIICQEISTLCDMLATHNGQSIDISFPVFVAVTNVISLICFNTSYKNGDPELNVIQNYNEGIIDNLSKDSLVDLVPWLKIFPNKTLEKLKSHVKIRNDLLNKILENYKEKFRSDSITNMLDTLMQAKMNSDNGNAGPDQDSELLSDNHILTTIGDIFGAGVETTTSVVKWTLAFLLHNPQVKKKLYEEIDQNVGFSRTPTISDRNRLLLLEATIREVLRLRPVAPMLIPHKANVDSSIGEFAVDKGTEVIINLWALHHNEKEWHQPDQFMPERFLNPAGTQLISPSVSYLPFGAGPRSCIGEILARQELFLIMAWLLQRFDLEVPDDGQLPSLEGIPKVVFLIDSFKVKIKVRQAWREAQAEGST

[2] = Particle size distribution by laser diffraction, dry powder method (Malvern Mastersizer 2000); format: physicochemical; conditions: milled dried product after spherical agglomeration
Description: PSD was determined by laser diffraction-dry powder method with a Malvern Mastersizer 2000 device.

Measured Particle Size Distribution D(0.5) [2] [μm] | SMILES | also measured
3.7 | CC(=O)O[C@H]1CC[C@@]2(C)C(=CC[C@@H]3[C@@H]2CC[C@]2(C)C(c4cccnc4)=CC[C@@H]32)C1 [Example 3, abiraterone acetate] | –
6.5 | CC(=O)O[C@H]1CC[C@@]2(C)C(=CC[C@@H]3[C@@H]2CC[C@]2(C)C(c4cccnc4)=CC[C@@H]32)C1 [Example 4, abiraterone acetate] | –

The remaining lines, values behind:

SMILES | Measured Particle Size Distribution D(0.5) [2] [μm] | also measured
CC(=O)O[C@H]1CC[C@@]2(C)C(=CC[C@@H]3[C@@H]2CC[C@]2(C)C(c4cccnc4)=CC[C@@H]32)C1 [Abiraterone acetate, (3β)-17-(3-pyridinyl)-androsta-5,16-dien-3-yl acetate] | – | Solubility in 0.1N HCl solution ([1]; 0.1N HCl solution): very slightly soluble; Solubility in aqueous media ([1]; aqueous media, pH range 2.0 to 12.9): practically insoluble; Solubility in organic solvents ([1]; organic solvents): soluble to freely soluble
C[C@]12CC[C@H](O)CC1=CC[C@@H]1[C@@H]2CC[C@]2(C)C(c3cccnc3)=CC[C@@H]12 [Abiraterone, 17-(3-pyridyl)-androsta-5,16-dien-3β-ol] | – | Inhibition of human cytochrome P45017α (human cytochrome P45017α): potent inhibitor
CC(=O)O[C@H]1CC[C@@]2(C)C(=CC[C@@H]3[C@@H]2CC[C@]2(C)C(c4cccnc4)=CC[C@@H]32)C1 [Example 1, abiraterone acetate] | 4.9 | –
CC(=O)O[C@H]1CC[C@@]2(C)C(=CC[C@@H]3[C@@H]2CC[C@]2(C)C(c4cccnc4)=CC[C@@H]32)C1 [Example 2, abiraterone acetate] | 10.7 | –
